Source: patent publication US20220289753A1, “SHP2 INHIBITORS” (IRBM S.P.A., priority 2019, published 2022)
pIC50: −log10 of the molar value.

How the values were obtained:
[1] = biological target: T1, SHP-2 enzyme (Met1-Leu525) (Homo sapiens, UniProt Q06124); experiment: SHP2 inhibition enzymatic assay (DiFMUP substrate, IRS1 peptide activation); assay type: biochemical; settings: SHP2 wt; activated by 500 nM IRS1 peptide; 75 μM DiFMUP substrate
T1 construct: synthetized by Origene, Met1-Leu525, cat #TP750155; purchased Origene TP750155
T1 sequence (Q06124 1-525): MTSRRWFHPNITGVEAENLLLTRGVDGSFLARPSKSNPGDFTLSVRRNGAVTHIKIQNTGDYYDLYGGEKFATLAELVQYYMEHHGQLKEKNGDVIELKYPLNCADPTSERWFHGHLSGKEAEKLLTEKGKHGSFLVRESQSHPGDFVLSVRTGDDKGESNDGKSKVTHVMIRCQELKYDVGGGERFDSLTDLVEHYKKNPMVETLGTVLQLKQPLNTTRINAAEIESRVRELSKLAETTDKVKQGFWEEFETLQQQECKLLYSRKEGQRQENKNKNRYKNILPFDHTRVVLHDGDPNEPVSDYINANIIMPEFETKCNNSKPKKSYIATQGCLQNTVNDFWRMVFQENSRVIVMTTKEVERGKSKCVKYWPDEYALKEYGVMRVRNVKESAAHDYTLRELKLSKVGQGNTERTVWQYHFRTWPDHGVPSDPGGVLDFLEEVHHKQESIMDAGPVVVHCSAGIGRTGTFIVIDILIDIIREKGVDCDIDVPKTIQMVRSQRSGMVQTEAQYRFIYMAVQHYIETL
Method in brief: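 SHP-2 (Met1-Leu525, 0.5 nM final) preincubated 30 min with compounds and IRS1 activating peptide in HEPES pH 7.2 buffer with NaCl, KCl, EDTA, tween-20, 5 mM DTT. DiFMUP then added for 30 min at room temperature and fluorescence read. IC50 from four-parameter logistic fit of % inhibition.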

[2] = test system: ERK phosphorylation in KYSE-520 cells; experiment: Phospho-ERK cellular assay (Advanced phospho-ERK1/2 (Thr202/Tyr204) TR-FRET kit); assay type: cell-based; settings: Homo sapiens, KYSE-520, 2 h, KYSE-520 cells, 2 h at 37° C., TR-FRET; read-out: pERK IC50
Method in brief: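 KYSE-520 cells were treated 2 h at 37° C with serially diluted compounds, then lysed. Phospho-ERK1/2 (Thr202/Tyr204) was detected by TR-FRET after overnight antibody incubation at room temperature. IC50 came from a four-parameter logistic fit; lower signal reflects greater SHP2 inhibition.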

| SMILES | pIC50 [1] | pIC50 [2] |
| --- | --- | --- |
| COc1ncc(CN)cc1Sc1cnc2[nH]c(N3CCC4(CC3)Cc3ccccc3[C@H]4N)nc2n1 [Example 250, (1S)-1′-[5-[5-(aminomethyl)-2-methoxy-pyridin-3-yl]sulfanyl-1H-imidazo[4,5-b]pyrazin-2-yl]spiro[1,3-dihydroindene-2,4′-piperidine]-1-amine] | < 5.52 | 5.30 to 6.00 |
| N[C@@H]1c2ccccc2CC12CCN(c1nc3nc(Sc4cc(Cl)nn5ccnc45)cnc3[nH]1)CC2 [Example 251, (S)-1′-(5-((6-chloroimidazo[1,2-b]pyridazin-8-yl)thio)-1H-imidazo[4,5-b]pyrazin-2-yl)-1,3-dihydrospiro[indene-2,4′-piperidin]-1-amine] | > 6.30 | 5.30 to 6.00 |
| Nc1nccc(Sc2cnc3[nH]c(N4CCC5(CC4)Cc4cc(CO)ccc4[C@H]5N)nc3n2)c1Cl [Example 252, (S)-(1-amino-1′-(5-((2-amino-3-chloropyridin-4-yl)thio)-1H-imidazo[4,5-b]pyrazin-2-yl)-1,3-dihydrospiro[indene-2,4′-piperidin]-5-yl)methanol] | > 6.30 | > 6.00 |
| COC(=O)c1c(N2CCC3(CC2)Cc2ccccc2[C@H]3N)[nH]c2ncc(Sc3cccc(Cl)c3Cl)nc12 [Example 253, methyl (S)-6-(1-amino-1,3-dihydrospiro[indene-2,4′-piperidin]-1′-yl)-2-((2,3-dichlorophenyl)thio)-5H-pyrrolo[2,3-b]pyrazine-7-carboxylate] | > 6.30 | > 6.00 |
| Cc1ccnc2c(Sc3cnc4[nH]c(N5CCC6(CC5)Cc5ccccc5[C@H]6N)nc4n3)ccnc12 [Example 254, (S)-1′-(5-((8-methyl-1,5-naphthyridin-4-yl)thio)-1H-imidazo[4,5-b]pyrazin-2-yl)-1,3-dihydrospiro[indene-2,4′-piperidin]-1-amine] | > 6.30 | > 6.00 |
| Cn1cc2c(Sc3cnc4[nH]c(N5CCC6(CC5)Cc5ccccc5[C@H]6N)nc4n3)ccnc2n1 [Example 255, (S)-1′-(5-((2-methyl-2H-pyrazolo[3,4-b]pyridin-4-yl)thio)-1H-imidazo[4,5-b]pyrazin-2-yl)-1,3-dihydrospiro[indene-2,4′-piperidin]-1-amine] | > 6.30 | > 6.00 |
| N#Cc1ccc2c(c1)[C@@H](N)C1(CCN(c3nc4nc(Sc5ccnc(N)c5Cl)cnc4[nH]3)CC1)C2 [Example 256, (S)-1-amino-1′-(5-((2-amino-3-chloropyridin-4-yl)thio)-1H-imidazo[4,5-b]pyrazin-2-yl)-1,3-dihydrospiro[indene-2,4′-piperidine]-6-carbonitrile] | > 6.30 | < 5.30 |
| Nc1nccc(Sc2cnc3[nH]c(N4CCC5(CC4)Cc4ccc(C6CC6)cc4[C@H]5N)nc3n2)c1Cl [Example 257, (S)-1′-(5-((2-amino-3-chloropyridin-4-yl)thio)-1H-imidazo[4,5-b]pyrazin-2-yl)-6-cyclopropyl-1,3-dihydrospiro[indene-2,4′-piperidin]-1-amine] | > 6.30 | > 6.00 |
| N[C@@H]1c2ccccc2CC12CCN(c1nc3nc(Sc4cccc(Cl)c4Cl)c(Cl)nc3[nH]1)CC2 [Example 259, (S)-1′-(6-chloro-5-((2,3-dichlorophenyl)thio)-1H-imidazo[4,5-b]pyrazin-2-yl)-1,3-dihydrospiro[indene-2,4′-piperidin]-1-amine] | > 6.30 | > 6.00 |
| N#Cc1ccc2c(c1)[C@H](N)C1(CCN(c3nc4nc(Sc5ccnc(N)c5Cl)cnc4[nH]3)CC1)C2 [Example 260, (R)-1-amino-1′-(5-((2-amino-3-chloropyridin-4-yl)thio)-1H-imidazo[4,5-b]pyrazin-2-yl)-1,3-dihydrospiro[indene-2,4′-piperidine]-6-carbonitrile] | > 6.30 | > 6.00 |
| Cn1ncc2nccc(Sc3cnc4[nH]c(N5CCC6(CC5)Cc5ccccc5[C@H]6N)nc4n3)c21 [Example 261, (S)-1′-(5-((1-methyl-1H-pyrazolo[4,3-b]pyridin-7-yl)thio)-1H-imidazo[4,5-b]pyrazin-2-yl)-1,3-dihydrospiro[indene-2,4′-piperidin]-1-amine] | > 6.30 | > 6.00 |
| N[C@@H]1c2cccnc2CC12CCN(c1nc3nc(Sc4ccnc(Cl)c4C(F)(F)F)cnc3[nH]1)CC2 [Example 262, (S)-1′-(5-((2-chloro-3-(trifluoromethyl)pyridin-4-yl)thio)-1H-imidazo[4,5-b]pyrazin-2-yl)-5,7-dihydrospiro[cyclopenta[b]pyridine-6,4′-piperidin]-5-amine] | > 6.30 | > 6.00 |
| CNc1nccc(Sc2cnc3[nH]c(N4CCC5(CC4)Cc4ncccc4[C@H]5N)nc3n2)c1C(F)(F)F [Example 264, (5S)-1′-[5-[2-(methylamino)-3-(trifluoromethyl)pyridin-4-yl]sulfanyl-1H-imidazo[4,5-b]pyrazin-2-yl]spiro[5,7-dihydrocyclopenta[b]pyridine-6,4′-piperidine]-5-amine] | > 6.30 | > 6.00 |
| Nc1nccc(Sc2cnc3[nH]c(N4CCC5(CC4)Cc4ccccc4[C@H]5N)cc3n2)c1Cl [Example 265, (S)-1′-(2-((2-amino-3-chloropyridin-4-yl)thio)-5H-pyrrolo[2,3-b]pyrazin-6-yl)-1,3-dihydrospiro[indene-2,4′-piperidin]-1-amine] | > 6.30 | 5.30 to 6.00 |
| Nc1cc(Sc2cnc3[nH]c(N4CCC5(CC4)Cc4ccccc4[C@H]5N)nc3n2)c(Cl)c(Cl)n1 [Example 266, (S)-1′-(5-((6-amino-2,3-dichloropyridin-4-yl)thio)-1H-imidazo[4,5-b]pyrazin-2-yl)-1,3-dihydrospiro[indene-2,4′-piperidin]-1-amine] | > 6.30 | < 5.30 |
| Nc1nccc(Sc2cnc3[nH]c(N4CCC5(CC4)Cc4ncccc4[C@H]5N)cc3n2)c1Cl [Example 267, (S)-1′-(2-((2-amino-3-chloropyridin-4-yl)thio)-5H-pyrrolo[2,3-b]pyrazin-6-yl)-5,7-dihydrospiro[cyclopenta[b]pyridine-6,4′-piperidin]-5-amine] | > 6.30 | > 6.00 |
| C[C@@H]1OCC2(CCN(c3cc4nc(Sc5ccnc(N)c5Cl)cnc4[nH]3)CC2)[C@@H]1N [Example 268, (3S,4S)-8-(2-((2-amino-3-chloropyridin-4-yl)thio)-5H-pyrrolo[2,3-b]pyrazin-6-yl)-3-methyl-2-oxa-8-azaspiro[4.5]decan-4-amine] | > 6.30 | > 6.00 |
| COc1nc(N)ccc1Sc1cnc2[nH]c(N3CCC4(CC3)Cc3ccccc3[C@H]4N)nc2n1 [Example 269, (S)-1′-(5-((6-amino-2-methoxypyridin-3-yl)thio)-1H-imidazo[4,5-b]pyrazin-2-yl)-1,3-dihydrospiro[indene-2,4′-piperidin]-1-amine] | > 6.30 | > 6.00 |
